Tests used:
Format in all cases: in vivo
Meloidogyne incognita = test: Meloidogyne test (Example A); conditions: 20 ppm active compound; nematicidal action by formation of galls on lettuce roots; 100% = no galls
Protocol: • Solvent: 7 parts by weight of dimethylformamide • Emulsifier: 2 parts by weight of alkylaryl polyglycol ether
To produce a suitable preparation of active compound, 1 part by weight of active compound is mixed with the stated amounts of solvent and emulsifier, and the concentrate is diluted with water to the desired concentration.
Containers are filled with sand, solution of active compound, Meloidogyne incognita egg/larvae suspension and lettuce seeds. The lettuce seeds germinate and the plants develop. On the roots, galls are formed.
After the desired period of time, the nematicidal action is determined in % by the formation of galls. 100% means that no galls were found; 0% means that the number of galls on the treated plants corresponds to that of the untreated control.

[1] = tested on: monocotyledonous and dicotyledonous weed and crop plants (cereals); test: Herbicidal post-emergence action, use of safeners, container trials with cereals in the greenhouse (Example I); conditions: without safener
Protocol: (§1) Herbicidal Post-emergence Action
Seeds of monocotyledonous and dicotyledonous weed and crop plants are placed into sandy loam in wood fibre pots or in plastic pots, covered with soil and cultivated in a greenhouse, during the vegetation period also outdoors outside of the greenhouse, under good growth conditions. 2-3 weeks after sowing, the test plants are treated at the one- to three-leaf stage. The test compounds, formulated as wettable powders (WP), or emulsifiable concentrates (EC), are, in various dosages with a water application rate of 300 l/ha (converted), with wetting agent (0.2 to 0.3%) added, sprayed onto the plants and the surface of the soil. 3-4 weeks after the treatment of the test plants, the effect of the preparations is rated visually in comparison to untreated controls (herbicidal effect in precent (%): 100% effect=the plants have died, 0% effect=like control plants).
If it is additionally to be tested whether safeners can improve the plant compatibility of test substances in the case of the crop plants, the following option is used for applying the safener: • seeds of the crop plants are, before sowing, dressed with the safener substance (the amount of safener is stated in percent, based on the weight of seed) • before the application of the test substances, the crop plants are sprayed with the safener at a certain application rate per hectare (usually 1 day before the application of the test substances) • the safener is applied together with the test substance as a tank mix (the amount of safener is stated in g/ha or as a ratio, based on the herbicide).
By comparing the effect of test substances on crop plants without or with safener treatment, it is possible to assess the effect of the safener substance.

[2] = tested on: monocotyledonous and dicotyledonous weed and crop plants; test: Herbicidal pre-emergence action (Example G); conditions: greenhouse, 320 g of a.i./ha
Source text: Herbicidal Pre-emergence Action
Seeds of monocotyledonous and dicotyledonous weed and crop plants are placed into sandy loam in wood fibre pots and covered with soil. The test compounds, formulated in the form of wettable powders (WP), are then, in various dosages as aqueous suspension with a water application rate of 600 l/ha (converted), with 0.2% of wetting agent added, applied to the surface of the covering soil. After the treatment, the pots are placed in a greenhouse and kept under good growth conditions for the test plants. The visual assessment of the emergence damage on the test plants is carried out after a trial period of 3 weeks by comparison with untreated controls (herbicidal effect in percent (%): 100% effect=the plants have died, 0% effect=like control plants).

[3] = tested on: greenhouse red spider mite (Tetranychus urticae); test: Tetranychus test (OP-resistance/spray treatment) (Example E); conditions: 100 g/ha; sprayed bean leaf discs
Protocol: Tetranychus Test (OP-resistance/Spray Treatment)
• Solvents: 78 parts by weight of acetone • 1.5 parts by weight of dimethylformamide • Emulsifier: 0.5 part by weight of alkylaryl polyglycol ether
To prepare a suitable preparation of active compound, 1 part by weight of active compound is mixed with the stated amounts of solvents and emulsifier, and the concentrate is diluted with emulsifier-containing water to the desired concentration.
Discs of bean leaves (Phaseolus vulgaris) which are infested by all stages of the greenhouse red spider mite (Tetranychus urticae) are sprayed with a preparation of active compound of the desired concentration.
After the desired period of time, the activity in % is determined. 100% means that all spider mites have been killed; 0% means that none of the spider mites have been killed.

[4] = tested on: monocotyledonous and dicotyledonous weed and crop plants; test: Herbicidal post-emergence action (Example H); conditions: greenhouse, 320 g of a.i./ha
Protocol: as §1
Seeds of monocotyledonous and dicotyledonous weed and crop plants are placed into sandy loam in wood fibre pots, covered with soil and cultivated in a greenhouse under good growth conditions. 2-3 weeks after sowing, the test plants are treated at the one-leaf stage. The test compounds, formulated as wettable powders (WP), are, in various dosages with a water application rate of 600 l/ha (converted), with 0.2% of wetting agent added, sprayed onto the green parts of the plants. After the test plants were kept in a greenhouse under optimum growth conditions for about 3 weeks, the effect of the preparations is rated visually in comparison to untreated controls (herbicidal effect in percent (%): 100% effect=the plants have died, 0% effect=like control plants).

SMILES: Cc1cc(-c2ccc(Cl)cc2)cc(C)c1C1(Cl)C(=O)N2CCCCN2C1=O [Ex. I-3-1]
- Effect in % after 14d (Meloidogyne incognita): 100%
- Summer barley observed (%) ([1]; 50 g of a.i./ha): 80%
- Summer wheat observed (%) ([1]; 50 g of a.i./ha): 60%
- Summer barley observed (%) ([1]; 100 g of a.i./ha): 80%
- Summer wheat observed (%) ([1]; 100 g of a.i./ha): 60%

SMILES: Cc1cc(-c2ccc(Cl)cc2)cc(C)c1C1(Cl)C(=O)N2CCOCCN2C1=O [Ex. I-4-1]
- herbicidal effect, Echinochloea ([2]; Echinochloea): 70%
- herbicidal effect, Setaria ([2]; Setaria): 80%
- herbicidal effect, Sorghum ([2]; Sorghum): 70%
- herbicidal effect, Soybeans ([2]; Soybeans): 0%
- herbicidal effect, Wheat ([2]; Wheat): 0%
- Kill rate in % after 5d [3]: 90%
- herbicidal effect, Alopecurus ([4]; Alopecurus): 80%
- herbicidal effect, Digitaria ([4]; Digitaria): 100%
- herbicidal effect, Lolium ([4]; Lolium): 80%
- herbicidal effect, Setaria ([4]; Setaria): 100%
- herbicidal effect, Sugarbeets ([4]; Sugarbeets): 10%
- Summer barley observed (%) ([1]; 25 g of a.i./ha): 40%
- Summer wheat observed (%) ([1]; 25 g of a.i./ha): 60%
- Summer barley observed (%) ([1]; 50 g of a.i./ha): 95%
- Summer wheat observed (%) ([1]; 50 g of a.i./ha): 97%
- Summer barley observed (%) ([1]; 100 g of a.i./ha): 97%
- Summer wheat observed (%) ([1]; 100 g of a.i./ha): 97%

From patent US7569517B2, “4-biphenyl-substituted pyrazolidin-3 5-diones pesticide agent and/or microbicide and/or herbicide” (Bayer CropScience AG, priority 2003, dated 2009)
